Laboratory results from US9642874B2, “Compositions of selenoorganic compounds and methods of use thereof” (Alltech, Inc., priority 2014, dated 2017).

Key:
Format in all cases: cell-based
Foxo4 = experiment: Western blot of pFoxo4T28 in primary mouse hepatocytes; conditions: 100 nM insulin, 6 hours
Protocol: (§1) The overnight-acclimated hepatocytes were washed twice with PBS (to remove any residual FBS and other additives in the TRL hepatocyte maintenance medium, pretreated with control (water) or selenium Compounds CDE (150 or 300 ppb of each selenium compound) in DMEM/F12 media supplemented with 10% fetal bovine serum (FBS) for 24 hr. These cells were then washed twice with PBS and incubated with the same dose of selenium Compounds CDE (150 or 300 ppb) in the presence or absence of insulin (10 or 100 nM, Sigma), 0.1 mM 8-CPT (Sigma) or 0.5 μM Dex (Sigma) in serum-free and glucose-free DMEM media (Invitrogen) supplemented with 20 mM lactose (Sigma) and 2 mM pyruvate (Sigma) and 15 mM HEPES (Sigma) for another 6 hours. […]
(§2) After the above described treatments, primary mouse hepatocytes were rinsed with ice-cold PBS and lysed in the ice-cold RIPA buffer containing complete proteinase and phosphatase inhibitors (Thermo-Fisher Scientific, Waltham, Mass.) on ice for 30 min Cell lysates were collected using a cell scraper and transfer pipette and then centrifuged at 12000×g for 30 min at 4° C. to remove the DNA pellet and obtain the protein extract. Protein levels in the supernatant of these cell lysates were determined using the Pierce Micro-BCA protein assay kit (Thermo Scientific-Piece Biotechnology, Rockford, Ill.) according to the manufacturer's protocol. […]

Foxo1 = experiment: Western blot of pFoxo1T24 in primary mouse hepatocytes; conditions: 100 nM insulin 6 hours, or Compounds CDE both doses 24 hours + 6 hours
Protocol: as §1, §2

[1] = system: primary mouse hepatocytes; experiment: Glucose production in primary mouse hepatocytes (glucose in culture media); conditions: for 8-CPT/Dex-stimulated glucose production: serum-free; for 8-CPT/Dex-stimulated glucose production / decrease of glucose production: 6 hours
Protocol: The overnight-acclimated hepatocytes were washed twice with PBS (to remove any residual FBS and other additives in the TRL hepatocyte maintenance medium, pretreated with control (water) or selenium Compounds CDE (150 or 300 ppb of each selenium compound) in DMEM/F12 media supplemented with 10% fetal bovine serum (FBS) for 24 hr. These cells were then washed twice with PBS and incubated with the same dose of selenium Compounds CDE (150 or 300 ppb) in the presence or absence of insulin (10 or 100 nM, Sigma), 0.1 mM 8-CPT (Sigma) or 0.5 μM Dex (Sigma) in serum-free and glucose-free DMEM media (Invitrogen) supplemented with 20 mM lactose (Sigma) and 2 mM pyruvate (Sigma) and 15 mM HEPES (Sigma) for another 6 hours. After treatments, cell media were collected and subjected to glucose assay and toxicological studies of lactate dehydrogenase (LDH) and cells were collected for RNA and protein analysis.
For the studies of Compounds CDE on primary mouse hepatocytes under totally serum-free culture conditions, hepatocytes were acclimated in hepatocyte maintenance medium (TRL) for 8 hours, washed twice with PBS (to remove any residual FBS and other additives in the culture dish) and then starved in serum-free DMEM/F12 media overnight. Some of these serum-starved hepatocytes were treated with control (water), selenium compounds (150 or 300 ppb of each compound) in the presence or absence of insulin (10 or 100 nM), 0.1 mM 8-CPT (Sigma) or 0.5 μM Dex (Sigma) in serum-free and glucose/phenol red-free DMEM media supplemented with 20 mM lactose and 2 mM pyruvate and 15 mM HEPES for 6 hours. After 6 hours treatment, culture media were collected for glucose analysis and toxicological studies monitoring LDH activity and cultured cells were isolated for protein analysis. In addition, some serum-starved hepatocytes were treated with Compounds CDE (300 ppb of each compound) in plain DMEM/F12 media for 0, 5, 30, 60, 120 and 180 min and cells were collected for the time-course protein analysis of various signaling molecules.
Cell culture media from the above described treatments were collected and centrifuged at 300×g for 5 minutes to remove any potential dislodged hepatocytes and subjected to glucose analysis using a colormetric glucose assay kit (Abcam) according to the manufacturer protocol. The absorbance at OD570 nm in the samples and various concentrations of glucose standards were determined by the Bio-Tek microplate reader, and glucose concentration in the medium of each sample was obtained from the glucose standard curve, and then normalized by its protein level in attached cells which were determined using the Pierce Micro-BCA protein assay kit (Thermo Scientific-Piece Biotechnology, Rockford, Ill.) according to the manufacturer's protocol. Glucose levels in each treatment group were divided by the mean level in control group (without the treatments of Compounds CDE, insulin, 8-CPT and Dex) to obtain the relative glucose level. Data are presented as Mean±SEM of 3-4 samples.
Similar to the studies on AML-12 cells, primary mouse hepatocytes were pretreated with a control (water) or 150 ppb and 300 ppb doses of selenium Compounds CDE in serum-containing DMEM/F12 media for 24 hours. This treatment was followed by retreatments with these selenium compounds in the presence or absence of insulin (10 and 100 nM) or insulin alone for 6 hours. […]

Question: What does the source list for “insulin: insulin (10 or 100 nM, Sigma) used as comparator and cotreatment”?
Answer: pFoxo4T28 levels (Foxo4): barely detectable; pFoxo1T24 protein level (in words) (Foxo1): significant increase; 8-CPT/Dex-stimulated glucose production ([1]; 10 nM insulin): significantly inhibited glucose production; 8-CPT/Dex-stimulated glucose production ([1]; 100 nM insulin): only a trend of decreased glucose production; 8-CPT/Dex-induced glucose production ([1]; insulin 10 and 100 nM, vs 8-CPT/Dex group): significantly decreased 8-CPT/Dex-induced glucose production; decrease of glucose production ([1]; insulin alone at 10 nM and 100 nM, vs water-treated control): 25-30%; decrease of glucose production ([1]; insulin alone, both doses (10, 100 nM), serum-starved, serum-free media): 40-47%
